# Results published in patent US12370192B2, “Azole-fused pyridazin-3(2H)-one derivatives” (TAKEDA PHARMACEUTICAL COMPANY LIMITED, priority 2019, dated 2025).
# What was measured:
# human GPR139 receptor [1] = molecular target: T1, human GPR139 receptor (Homo sapiens, UniProt Q6DWJ6); assay: GPR139 Competition Binding (membrane-based, tritium-labeled ligand); conditions: T-REx-CHO membranes with human GPR139; 6.5 nM tritium-labeled ligand; 11-point curve, 30 μM maximum concentration; read-out: GPR139 Binding Affinity (pKi) (converted)
# T1 construct: expressed in transfected cells; host or cells: T-REx-CHO (Thermo Fisher Scientific), doxycycline-induced
# T1 sequence (Q6DWJ6 1-353): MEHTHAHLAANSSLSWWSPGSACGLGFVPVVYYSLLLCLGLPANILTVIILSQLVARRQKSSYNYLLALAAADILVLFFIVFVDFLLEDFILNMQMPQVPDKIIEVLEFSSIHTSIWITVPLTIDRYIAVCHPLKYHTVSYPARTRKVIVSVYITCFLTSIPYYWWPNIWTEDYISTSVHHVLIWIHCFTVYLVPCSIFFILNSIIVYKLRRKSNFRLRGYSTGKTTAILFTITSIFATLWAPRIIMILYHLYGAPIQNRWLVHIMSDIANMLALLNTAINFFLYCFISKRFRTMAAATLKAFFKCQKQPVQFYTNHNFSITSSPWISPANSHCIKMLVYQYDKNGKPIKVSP
# In short: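 Membranes came from doxycycline-induced T-REx-CHO cells expressing human GPR139. They were incubated 20 min at room temperature with 6.5 nM tritiated ligand and compound (11 points, top 30 μM) in HEPES pH 7.3 buffer with MgCl2/CaCl2. Filter-bound counts gave Ki by four-parameter fit, reported as pKi.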
# human GPR139 receptor [2] = molecular target: T1, human GPR139 receptor; assay: Measurement of GPR139 Activation Via Calcium Signaling (FLIPR, T-REx-CHO cells); format: cell-based; conditions: T-REx-CHO cells stably expressing human GPR139, 11-point dose response, 10 μM maximum concentration, read-out: GPR139 Potency (pEC50) (converted)
# In short: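 T-REx-CHO cells stably carrying human GPR139 under tetracycline control, induced with 2 μg/mL doxycycline for 17 h at 37 °C, loaded 40 min with Calcium 5 dye plus probenecid in HBSS/HEPES pH 7.4. Agonist added as 11-point series (10 μM top); fluorescence read 1 min; pEC50 from four-parameter fit.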
Ki (human GPR139 receptor [1]),EC50 (human GPR139 receptor [2]),Compound
589 nM,20 nM,"C[C@H](NC(=O)Cn1ncc2c(C3CC3)nn(C)c2c1=O)c1cccc(F)c1 [Example 148, (S)-2-(3-cyclopropyl-1-methyl-7-oxo-1,7-dihydro-6H-pyrazolo[3,4-d]pyridazin-6-yl)-N-(1-(3-fluorophenyl)ethyl)acetamide]"
219 nM,26.3 nM,"Cc1ccc([C@H](C)NC(=O)Cn2ncc3c(C4CC4)nn(C)c3c2=O)cc1 [Example 149, (S)-2-(3-cyclopropyl-1-methyl-7-oxo-1,7-dihydro-6H-pyrazolo[3,4-d]pyridazin-6-yl)-N-(1-(p-tolyl)ethyl)acetamide]"
77.6 nM,47.9 nM,"C[C@H](NC(=O)Cn1ncc2c(C3CC3)nn(C)c2c1=O)c1c(F)cccc1Cl [Example 150, (S)—N-(1-(2-chloro-6-fluorophenyl)ethyl)-2-(3-cyclopropyl-1-methyl-7-oxo-1,7-dihydro-6H-pyrazolo[3,4-d]pyridazin-6-yl)acetamide]"
60.3 nM,20.4 nM,"Cc1ccc([C@H](C)NC(=O)Cn2ncc3c(C4CC4)nn(C)c3c2=O)cc1F [Example 151, (S)-2-(3-cyclopropyl-1-methyl-7-oxo-1,7-dihydro-6H-pyrazolo[3,4-d]pyridazin-6-yl)-N-(1-(3-fluoro-4-methylphenyl)ethyl)acetamide]"
110 nM,28.8 nM,"Cc1ccc([C@H](C)NC(=O)Cn2ncc3c(C4CC4)nn(C)c3c2=O)c(F)c1 [Example 152, (S)-2-(3-cyclopropyl-1-methyl-7-oxo-1,7-dihydro-6H-pyrazolo[3,4-d]pyridazin-6-yl)-N-(1-(2-fluoro-4-methylphenyl)ethyl)acetamide]"
1740 nM,89.1 nM,"C[C@H](NC(=O)Cn1ncc2ccn(C)c2c1=O)c1ccccc1 [Example 153, (S)-2-(1-methyl-7-oxo-1,7-dihydro-6H-pyrrolo[2,3-d]pyridazin-6-yl)-N-(1-phenylethyl)acetamide]"
490 nM,21.4 nM,"Cc1nn(CC(=O)N[C@@H](C)c2cccc(F)c2)c(=O)c2c1c(C)nn2C [Example 154, (S)—N-(1-(3-fluorophenyl)ethyl)-2-(1,3,4-trimethyl-7-oxo-1,7-dihydro-6H-pyrazolo[3,4-d]pyridazin-6-yl)acetamide]"
178 nM,87.1 nM,"Cc1nn(C2CCC2)c2cnn(CC(=O)N[C@@H](C)c3ccc(C(F)(F)F)cc3)c(=O)c12 [Example 155, (S)-2-(1-cyclobutyl-3-methyl-4-oxo-1,4-dihydro-5H-pyrazolo[3,4-d]pyridazin-5-yl)-N-(1-(4-(trifluoromethyl)phenyl)ethyl)acetamide]"
331 nM,107 nM,"Cc1nn(C23CC(C2)C3)c2cnn(CC(=O)N[C@@H](C)c3ccc(C(F)(F)F)cc3)c(=O)c12 [Example 156, (S)-2-(1-(bicyclo[1.1.1]pentan-1-yl)-3-methyl-4-oxo-1,4-dihydro-5H-pyrazolo[3,4-d]pyridazin-5-yl)-N-(1-(4-(trifluoromethyl)phenyl)ethyl)acetamide]"
234 nM,126 nM,"Cc1nn(C(C)(C)C)c2cnn(CC(=O)N[C@@H](C)c3ccc(C(F)(F)F)cc3)c(=O)c12 [Example 157, (S)-2-(1-(tert-butyl)-3-methyl-4-oxo-1,4-dihydro-5H-pyrazolo[3,4-d]pyridazin-5-yl)-N-(1-(4-(trifluoromethyl)phenyl)ethyl)acetamide]"
47.9 nM,57.5 nM,"Cc1ccc([C@H](C)NC(=O)Cn2ncc3c(C4CC4)cn(C)c3c2=O)cc1 [Example 158, (S)-2-(3-cyclopropyl-1-methyl-7-oxo-1,7-dihydro-6H-pyrrolo[2,3-d]pyridazin-6-yl)-N-(1-(p-tolyl)ethyl)acetamide]"
79.4 nM,100 nM,"C[C@H](NC(=O)Cn1ncc2c(C3CC3)cn(C)c2c1=O)c1ccc(C(F)(F)F)cc1 [Example 159, (S)-2-(3-cyclopropyl-1-methyl-7-oxo-1,7-dihydro-6H-pyrrolo[2,3-d]pyridazin-6-yl)-N-(1-(4-(trifluoromethyl)phenyl)ethyl)acetamide]"
30200 nM,295 nM,"Cc1nn(C2CC2)c2cnn(CC(=O)N[C@H](C)c3ccc(C(F)(F)F)cc3)c(=O)c12 [Example 160, (R)-2-(1-cyclopropyl-3-methyl-4-oxo-1,4-dihydro-5H-pyrazolo[3,4-d]pyridazin-5-yl)-N-(1-(4-(trifluoromethyl)phenyl)ethyl)acetamide]"
105 nM,8.51 nM,"C[C@H](NC(=O)Cn1ncc2ccn(C)c2c1=O)c1ccc(Cl)cc1 [Example 161, (S)—N-(1-(4-chlorophenyl)ethyl)-2-(1-methyl-7-oxo-1,7-dihydro-6H-pyrrolo[2,3-d]pyridazin-6-yl)acetamide]"
195 nM,13.2 nM,"Cc1ccc([C@H](C)NC(=O)Cn2ncc3ccn(C)c3c2=O)cc1 [Example 162, (S)-2-(1-methyl-7-oxo-1,7-dihydro-6H-pyrrolo[2,3-d]pyridazin-6-yl)-N-(1-(p-tolyl)ethyl)acetamide]"
1780 nM,15.5 nM,"COc1ccc([C@H](C)NC(=O)Cn2ncc3ccn(C)c3c2=O)cc1 [Example 163, (S)—N-(1-(4-methoxyphenyl)ethyl)-2-(1-methyl-7-oxo-1,7-dihydro-6H-pyrrolo[2,3-d]pyridazin-6-yl)acetamide]"
70.8 nM,12.6 nM,"Cc1ccc([C@H](C)NC(=O)Cn2ncc3ccn(C)c3c2=O)c(F)c1 [Example 165, (S)—N-(1-(2-fluoro-4-methylphenyl)ethyl)-2-(1-methyl-7-oxo-1,7-dihydro-6H-pyrrolo[2,3-d]pyridazin-6-yl)acetamide]"
2340 nM,53.7 nM,"[2H]C([2H])([2H])c1ccc([C@H](C)NC(=O)Cn2ncc3c(cnn3C(C)C)c2=O)cc1 [Example 166, (S)-2-(1-isopropyl-4-oxo-1,4-dihydro-5H-pyrazolo[3,4-d]pyridazin-5-yl)-N-(1-(4-(methyl-d3)phenyl)ethyl)acetamide]"
316 nM,63.1 nM,"[2H]C([2H])([2H])c1ccc([C@H](C)NC(=O)Cn2ncc3c(c(C)nn3C3CC3)c2=O)cc1 [Example 167, (S)-2-(1-cyclopropyl-3-methyl-4-oxo-1,4-dihydro-5H-pyrazolo[3,4-d]pyridazin-5-yl)-N-(1-(4-(methyl-d3)phenyl)ethyl)acetamide]"
380 nM,43.7 nM,"[2H]C([2H])([2H])c1ccc([C@H](C)NC(=O)Cn2ncc3c(c(C)nn3C(C)C)c2=O)cc1 [Example 168, (S)-2-(1-isopropyl-3-methyl-4-oxo-1,4-dihydro-5H-pyrazolo[3,4-d]pyridazin-5-yl)-N-(1-(4-(Methyl-d3)phenyl)ethyl)acetamide]"
75.9 nM,51.3 nM,"Cc1ccc([C@H](C)NC(=O)Cn2ncc3c(c(C(F)(F)F)nn3C)c2=O)cc1 [Example 169, (S)-2-(1-methyl-4-oxo-3-(trifluoromethyl)-1,4-dihydro-5H-pyrazolo[3,4-d]pyridazin-5-yl)-N-(1-(p-tolyl)ethyl)acetamide]"
20.9 nM,72.4 nM,"Cc1ccc([C@H](C)NC(=O)Cn2ncc3c(c(C(F)(F)F)nn3C)c2=O)c(F)c1 [Example 170, (S)—N-(1-(2-fluoro-4-methylphenyl)ethyl)-2-(1-methyl-4-oxo-3-(trifluoromethyl)-1,4-dihydro-5H-pyrazolo[3,4-d]pyridazin-5-yl)acetamide]"
24 nM,41.7 nM,"Cc1ccc([C@H](C)NC(=O)Cn2ncc3c(c(C(F)(F)F)nn3C)c2=O)cc1F [Example 171, (S)—N-(1-(3-fluoro-4-methylphenyl)ethyl)-2-(1-methyl-4-oxo-3-(trifluoromethyl)-1,4-dihydro-5H-pyrazolo[3,4-d]pyridazin-5-yl)acetamide]"
178 nM,93.3 nM,"C[C@H](NC(=O)Cn1ncc2c(c(C(F)(F)F)nn2C)c1=O)c1ccc(C(F)(F)F)cc1 [Example 172, (S)-2-(1-methyl-4-oxo-3-(trifluoromethyl)-1,4-dihydro-5H-pyrazolo[3,4-d]pyridazin-5-yl)-N-(1-(4-(trifluoromethyl)phenyl)ethyl)acetamide]"
234 nM,17.8 nM,"[2H]C([2H])([2H])c1ccc([C@H](C)NC(=O)Cn2ncc3ccn(C)c3c2=O)cc1 [Example 174, (S)-2-(1-methyl-7-oxo-1,7-dihydro-6H-pyrrolo[2,3-d]pyridazin-1-yl)-N-(1-(4-(methyl-d3)phenyl)ethyl)acetamide]"
